Reference: patent publication US8147838B2, “Peptide” (priority 2005, dated 2012)

system: PBMCs recovered from TroVax treated patients; type: cell-based, human; conditions: from HLA-type frequency among responding patients

Substance | most likely HLA restriction
36.2: class II 5T4 20 mer peptide (details in Table 12) (LQGLPHIRVFLDNNPWVCDC) [Peptide 36.2] | DQ2, DR7, or DR53
40.2: class II 5T4 20 mer peptide (details in Table 12) (EVVQGKDRLTCAYPEKMRNR) [Peptide 40.2] | DQ6, DR15, DR51, or DR52
42.2: class II 5T4 20 mer peptide (details in Table 12) (MRNRVLLELNSADLDCDPIL) [Peptide 42.2] | DQ6, DR51, DQ5, or DR15

same assay, conditions: positive proliferative responses

Substance | responders with HLA type DQ2 out of all responders | responders with HLA type DR7 out of all responders | responders with HLA type DR53 out of all responders | responders with HLA type DQ6 out of all responders | responders with HLA type DR15 out of all responders | responders with HLA type DR51 out of all responders | responders with HLA type DR52 out of all responders | responders with HLA type DQ5 out of all responders
36.2: class II 5T4 20 mer peptide (details in Table 12) (LQGLPHIRVFLDNNPWVCDC) [Peptide 36.2] | 3 out of 7 | 3 out of 7 | 3 out of 7 | – | – | – | – | –
40.2: class II 5T4 20 mer peptide (details in Table 12) (EVVQGKDRLTCAYPEKMRNR) [Peptide 40.2] | – | – | – | 8 out of 12 | 6 out of 12 | 6 out of 12 | 6 out of 12 | –
42.2: class II 5T4 20 mer peptide (details in Table 12) (MRNRVLLELNSADLDCDPIL) [Peptide 42.2] | – | – | – | 8 out of 12 | 6 out of 12 | 7 out of 12 | – | 6 out of 12

same assay, conditions: responding patients with HLA type DQ2 / all responding patients; PBMCs from TroVax treated patients

Substance | HLA-type distribution among positive proliferative responses: DQ2
36.2: class II 5T4 20 mer peptide (details in Table 12) (LQGLPHIRVFLDNNPWVCDC) [Peptide 36.2] | 3/7
40.2: class II 5T4 20 mer peptide (details in Table 12) (EVVQGKDRLTCAYPEKMRNR) [Peptide 40.2] | 5/12
42.2: class II 5T4 20 mer peptide (details in Table 12) (MRNRVLLELNSADLDCDPIL) [Peptide 42.2] | 4/12

same assay, conditions: responding patients with HLA type DQ4 / all responding patients; PBMCs from TroVax treated patients

Substance | HLA-type distribution among positive proliferative responses: DQ4
36.2: class II 5T4 20 mer peptide (details in Table 12) (LQGLPHIRVFLDNNPWVCDC) [Peptide 36.2] | 0/7
40.2: class II 5T4 20 mer peptide (details in Table 12) (EVVQGKDRLTCAYPEKMRNR) [Peptide 40.2] | 1/12
42.2: class II 5T4 20 mer peptide (details in Table 12) (MRNRVLLELNSADLDCDPIL) [Peptide 42.2] | 0/12

same assay, conditions: responding patients with HLA type DQ5 / all responding patients; PBMCs from TroVax treated patients

Substance | HLA-type distribution among positive proliferative responses: DQ5
36.2: class II 5T4 20 mer peptide (details in Table 12) (LQGLPHIRVFLDNNPWVCDC) [Peptide 36.2] | 2/7
40.2: class II 5T4 20 mer peptide (details in Table 12) (EVVQGKDRLTCAYPEKMRNR) [Peptide 40.2] | 2/12
42.2: class II 5T4 20 mer peptide (details in Table 12) (MRNRVLLELNSADLDCDPIL) [Peptide 42.2] | 6/12

same assay, conditions: responding patients with HLA type DQ6 / all responding patients; PBMCs from TroVax treated patients

Substance | HLA-type distribution among positive proliferative responses: DQ6
36.2: class II 5T4 20 mer peptide (details in Table 12) (LQGLPHIRVFLDNNPWVCDC) [Peptide 36.2] | 2/7
40.2: class II 5T4 20 mer peptide (details in Table 12) (EVVQGKDRLTCAYPEKMRNR) [Peptide 40.2] | 8/12
42.2: class II 5T4 20 mer peptide (details in Table 12) (MRNRVLLELNSADLDCDPIL) [Peptide 42.2] | 8/12

same assay, conditions: responding patients with HLA type DQ7 / all responding patients; PBMCs from TroVax treated patients

Substance | HLA-type distribution among positive proliferative responses: DQ7
36.2: class II 5T4 20 mer peptide (details in Table 12) (LQGLPHIRVFLDNNPWVCDC) [Peptide 36.2] | 2/7
40.2: class II 5T4 20 mer peptide (details in Table 12) (EVVQGKDRLTCAYPEKMRNR) [Peptide 40.2] | 3/12
42.2: class II 5T4 20 mer peptide (details in Table 12) (MRNRVLLELNSADLDCDPIL) [Peptide 42.2] | 0/12

same assay, conditions: responding patients with HLA type DQ8 / all responding patients; PBMCs from TroVax treated patients

Substance | HLA-type distribution among positive proliferative responses: DQ8
36.2: class II 5T4 20 mer peptide (details in Table 12) (LQGLPHIRVFLDNNPWVCDC) [Peptide 36.2] | 0/7
40.2: class II 5T4 20 mer peptide (details in Table 12) (EVVQGKDRLTCAYPEKMRNR) [Peptide 40.2] | 0/12
42.2: class II 5T4 20 mer peptide (details in Table 12) (MRNRVLLELNSADLDCDPIL) [Peptide 42.2] | 1/12

same assay, conditions: responding patients with HLA type DQ9 / all responding patients; PBMCs from TroVax treated patients

Substance | HLA-type distribution among positive proliferative responses: DQ9
36.2: class II 5T4 20 mer peptide (details in Table 12) (LQGLPHIRVFLDNNPWVCDC) [Peptide 36.2] | 2/7
40.2: class II 5T4 20 mer peptide (details in Table 12) (EVVQGKDRLTCAYPEKMRNR) [Peptide 40.2] | 2/12
42.2: class II 5T4 20 mer peptide (details in Table 12) (MRNRVLLELNSADLDCDPIL) [Peptide 42.2] | 1/12

same assay, conditions: responding patients with HLA type DR1 / all responding patients; PBMCs from TroVax treated patients

Substance | HLA-type distribution among positive proliferative responses: DR1
36.2: class II 5T4 20 mer peptide (details in Table 12) (LQGLPHIRVFLDNNPWVCDC) [Peptide 36.2] | 2/7
40.2: class II 5T4 20 mer peptide (details in Table 12) (EVVQGKDRLTCAYPEKMRNR) [Peptide 40.2] | 1/12
42.2: class II 5T4 20 mer peptide (details in Table 12) (MRNRVLLELNSADLDCDPIL) [Peptide 42.2] | 4/12

same assay, conditions: responding patients with HLA type DR4 / all responding patients; PBMCs from TroVax treated patients

Substance | HLA-type distribution among positive proliferative responses: DR4
36.2: class II 5T4 20 mer peptide (details in Table 12) (LQGLPHIRVFLDNNPWVCDC) [Peptide 36.2] | 1/7
40.2: class II 5T4 20 mer peptide (details in Table 12) (EVVQGKDRLTCAYPEKMRNR) [Peptide 40.2] | 1/12
42.2: class II 5T4 20 mer peptide (details in Table 12) (MRNRVLLELNSADLDCDPIL) [Peptide 42.2] | 1/12

same assay, conditions: responding patients with HLA type DR7 / all responding patients; PBMCs from TroVax treated patients

Substance | HLA-type distribution among positive proliferative responses: DR7
36.2: class II 5T4 20 mer peptide (details in Table 12) (LQGLPHIRVFLDNNPWVCDC) [Peptide 36.2] | 3/7
40.2: class II 5T4 20 mer peptide (details in Table 12) (EVVQGKDRLTCAYPEKMRNR) [Peptide 40.2] | 3/12
42.2: class II 5T4 20 mer peptide (details in Table 12) (MRNRVLLELNSADLDCDPIL) [Peptide 42.2] | 3/12

same assay, conditions: responding patients with HLA type DR8 / all responding patients; PBMCs from TroVax treated patients

Substance | HLA-type distribution among positive proliferative responses: DR8
36.2: class II 5T4 20 mer peptide (details in Table 12) (LQGLPHIRVFLDNNPWVCDC) [Peptide 36.2] | 0/7
40.2: class II 5T4 20 mer peptide (details in Table 12) (EVVQGKDRLTCAYPEKMRNR) [Peptide 40.2] | 1/12
42.2: class II 5T4 20 mer peptide (details in Table 12) (MRNRVLLELNSADLDCDPIL) [Peptide 42.2] | 0/12

same assay, conditions: responding patients with HLA type DR9 / all responding patients; PBMCs from TroVax treated patients

Substance | HLA-type distribution among positive proliferative responses: DR9
36.2: class II 5T4 20 mer peptide (details in Table 12) (LQGLPHIRVFLDNNPWVCDC) [Peptide 36.2] | 1/7
40.2: class II 5T4 20 mer peptide (details in Table 12) (EVVQGKDRLTCAYPEKMRNR) [Peptide 40.2] | 1/12
42.2: class II 5T4 20 mer peptide (details in Table 12) (MRNRVLLELNSADLDCDPIL) [Peptide 42.2] | 0/12

same assay, conditions: responding patients with HLA type DR11 / all responding patients; PBMCs from TroVax treated patients

Substance | HLA-type distribution among positive proliferative responses: DR11
36.2: class II 5T4 20 mer peptide (details in Table 12) (LQGLPHIRVFLDNNPWVCDC) [Peptide 36.2] | 1/7
40.2: class II 5T4 20 mer peptide (details in Table 12) (EVVQGKDRLTCAYPEKMRNR) [Peptide 40.2] | 1/12
42.2: class II 5T4 20 mer peptide (details in Table 12) (MRNRVLLELNSADLDCDPIL) [Peptide 42.2] | 1/12

same assay, conditions: responding patients with HLA type DR13 / all responding patients; PBMCs from TroVax treated patients

Substance | HLA-type distribution among positive proliferative responses: DR13
36.2: class II 5T4 20 mer peptide (details in Table 12) (LQGLPHIRVFLDNNPWVCDC) [Peptide 36.2] | 1/7
40.2: class II 5T4 20 mer peptide (details in Table 12) (EVVQGKDRLTCAYPEKMRNR) [Peptide 40.2] | 3/12
42.2: class II 5T4 20 mer peptide (details in Table 12) (MRNRVLLELNSADLDCDPIL) [Peptide 42.2] | 2/12

same assay, conditions: responding patients with HLA type DR15 / all responding patients; PBMCs from TroVax treated patients

Substance | HLA-type distribution among positive proliferative responses: DR15
36.2: class II 5T4 20 mer peptide (details in Table 12) (LQGLPHIRVFLDNNPWVCDC) [Peptide 36.2] | 2/7
40.2: class II 5T4 20 mer peptide (details in Table 12) (EVVQGKDRLTCAYPEKMRNR) [Peptide 40.2] | 6/12
42.2: class II 5T4 20 mer peptide (details in Table 12) (MRNRVLLELNSADLDCDPIL) [Peptide 42.2] | 6/12

same assay, conditions: responding patients with HLA type DR17 / all responding patients; PBMCs from TroVax treated patients

Substance | HLA-type distribution among positive proliferative responses: DR17
36.2: class II 5T4 20 mer peptide (details in Table 12) (LQGLPHIRVFLDNNPWVCDC) [Peptide 36.2] | 1/7
40.2: class II 5T4 20 mer peptide (details in Table 12) (EVVQGKDRLTCAYPEKMRNR) [Peptide 40.2] | 3/12
42.2: class II 5T4 20 mer peptide (details in Table 12) (MRNRVLLELNSADLDCDPIL) [Peptide 42.2] | 2/12

same assay, conditions: responding patients with HLA type DR51 / all responding patients; PBMCs from TroVax treated patients

Substance | HLA-type distribution among positive proliferative responses: DR51
36.2: class II 5T4 20 mer peptide (details in Table 12) (LQGLPHIRVFLDNNPWVCDC) [Peptide 36.2] | 2/7
40.2: class II 5T4 20 mer peptide (details in Table 12) (EVVQGKDRLTCAYPEKMRNR) [Peptide 40.2] | 6/12
42.2: class II 5T4 20 mer peptide (details in Table 12) (MRNRVLLELNSADLDCDPIL) [Peptide 42.2] | 7/12

same assay, conditions: responding patients with HLA type DR52 / all responding patients; PBMCs from TroVax treated patients

Substance | HLA-type distribution among positive proliferative responses: DR52
36.2: class II 5T4 20 mer peptide (details in Table 12) (LQGLPHIRVFLDNNPWVCDC) [Peptide 36.2] | 2/7
40.2: class II 5T4 20 mer peptide (details in Table 12) (EVVQGKDRLTCAYPEKMRNR) [Peptide 40.2] | 6/12
42.2: class II 5T4 20 mer peptide (details in Table 12) (MRNRVLLELNSADLDCDPIL) [Peptide 42.2] | 5/12

same assay, conditions: responding patients with HLA type DR53 / all responding patients; PBMCs from TroVax treated patients

Substance | HLA-type distribution among positive proliferative responses: DR53
36.2: class II 5T4 20 mer peptide (details in Table 12) (LQGLPHIRVFLDNNPWVCDC) [Peptide 36.2] | 3/7
40.2: class II 5T4 20 mer peptide (details in Table 12) (EVVQGKDRLTCAYPEKMRNR) [Peptide 40.2] | 4/12
42.2: class II 5T4 20 mer peptide (details in Table 12) (MRNRVLLELNSADLDCDPIL) [Peptide 42.2] | 3/12
